This passage reports Kd results from PMC11671597, “The anticancer effect of metformin targets VDAC1 via ER-mitochondria interactions-mediated autophagy in HCC” (Experimental & Molecular Medicine, 2024).

For this test, the target named is voltage-dependent anion channel 1 (VDAC1) (Homo sapiens, UniProt P21796). The experiment in a line: microscale thermophoresis (MST); supported by dose-dependent DARTS in HepG2 mitochondrial lysate (EC50 […]) and loss of protection in D9A/E203A mutants. It is filed as binding.
Sequence of voltage-dependent anion channel 1 (VDAC1) (P21796 2-283): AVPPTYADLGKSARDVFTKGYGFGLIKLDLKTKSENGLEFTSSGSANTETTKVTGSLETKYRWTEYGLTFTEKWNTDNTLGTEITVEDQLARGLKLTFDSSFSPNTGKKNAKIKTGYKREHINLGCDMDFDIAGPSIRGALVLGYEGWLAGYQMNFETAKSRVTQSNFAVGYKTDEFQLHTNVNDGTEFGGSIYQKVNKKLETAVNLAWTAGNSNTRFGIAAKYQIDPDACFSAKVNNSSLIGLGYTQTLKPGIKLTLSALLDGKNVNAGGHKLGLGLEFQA

`CN(C)C(=N)N=C(N)N` [Metformin] registered a Kd of 204 µM.
